Data taken from ChEMBL document CHEMBL2440083 (J Med Chem, 2013).

Legend:
[1] = target: T1, Mu-type opioid receptor (Homo sapiens, UniProt P35372); experiment: Agonist activity at human mu opioid receptor expressed in HEK293 cells assessed as beta-arrestin recruitment by chemiluminescence assay; type: cell-based
[2] = target: T1, Mu-type opioid receptor; experiment: Agonist activity at human mu opioid receptor expressed in HEK293 cells assessed as inhibition of forskolin-stimulated cAMP accumulation by fluorescence assay; type: functional, cell-based
[3] = test system: Mus musculus; experiment: Toxicity in mouse fecal boli accumulation model assessed as fecal boli production at equianalgesic dose, sc after 4 hrs relative to morphine; type: organism-based; conditions: in vivo
[4] = target: T2, Sodium channel protein type 5 subunit alpha (Homo sapiens, UniProt Q14524); experiment: Inhibition of human Nav 1.5 tonic ion channel expressed in HEK293 cells by whole-cell patch clamp technique; type: cell-based
T2 sequence (Q14524 whole entry): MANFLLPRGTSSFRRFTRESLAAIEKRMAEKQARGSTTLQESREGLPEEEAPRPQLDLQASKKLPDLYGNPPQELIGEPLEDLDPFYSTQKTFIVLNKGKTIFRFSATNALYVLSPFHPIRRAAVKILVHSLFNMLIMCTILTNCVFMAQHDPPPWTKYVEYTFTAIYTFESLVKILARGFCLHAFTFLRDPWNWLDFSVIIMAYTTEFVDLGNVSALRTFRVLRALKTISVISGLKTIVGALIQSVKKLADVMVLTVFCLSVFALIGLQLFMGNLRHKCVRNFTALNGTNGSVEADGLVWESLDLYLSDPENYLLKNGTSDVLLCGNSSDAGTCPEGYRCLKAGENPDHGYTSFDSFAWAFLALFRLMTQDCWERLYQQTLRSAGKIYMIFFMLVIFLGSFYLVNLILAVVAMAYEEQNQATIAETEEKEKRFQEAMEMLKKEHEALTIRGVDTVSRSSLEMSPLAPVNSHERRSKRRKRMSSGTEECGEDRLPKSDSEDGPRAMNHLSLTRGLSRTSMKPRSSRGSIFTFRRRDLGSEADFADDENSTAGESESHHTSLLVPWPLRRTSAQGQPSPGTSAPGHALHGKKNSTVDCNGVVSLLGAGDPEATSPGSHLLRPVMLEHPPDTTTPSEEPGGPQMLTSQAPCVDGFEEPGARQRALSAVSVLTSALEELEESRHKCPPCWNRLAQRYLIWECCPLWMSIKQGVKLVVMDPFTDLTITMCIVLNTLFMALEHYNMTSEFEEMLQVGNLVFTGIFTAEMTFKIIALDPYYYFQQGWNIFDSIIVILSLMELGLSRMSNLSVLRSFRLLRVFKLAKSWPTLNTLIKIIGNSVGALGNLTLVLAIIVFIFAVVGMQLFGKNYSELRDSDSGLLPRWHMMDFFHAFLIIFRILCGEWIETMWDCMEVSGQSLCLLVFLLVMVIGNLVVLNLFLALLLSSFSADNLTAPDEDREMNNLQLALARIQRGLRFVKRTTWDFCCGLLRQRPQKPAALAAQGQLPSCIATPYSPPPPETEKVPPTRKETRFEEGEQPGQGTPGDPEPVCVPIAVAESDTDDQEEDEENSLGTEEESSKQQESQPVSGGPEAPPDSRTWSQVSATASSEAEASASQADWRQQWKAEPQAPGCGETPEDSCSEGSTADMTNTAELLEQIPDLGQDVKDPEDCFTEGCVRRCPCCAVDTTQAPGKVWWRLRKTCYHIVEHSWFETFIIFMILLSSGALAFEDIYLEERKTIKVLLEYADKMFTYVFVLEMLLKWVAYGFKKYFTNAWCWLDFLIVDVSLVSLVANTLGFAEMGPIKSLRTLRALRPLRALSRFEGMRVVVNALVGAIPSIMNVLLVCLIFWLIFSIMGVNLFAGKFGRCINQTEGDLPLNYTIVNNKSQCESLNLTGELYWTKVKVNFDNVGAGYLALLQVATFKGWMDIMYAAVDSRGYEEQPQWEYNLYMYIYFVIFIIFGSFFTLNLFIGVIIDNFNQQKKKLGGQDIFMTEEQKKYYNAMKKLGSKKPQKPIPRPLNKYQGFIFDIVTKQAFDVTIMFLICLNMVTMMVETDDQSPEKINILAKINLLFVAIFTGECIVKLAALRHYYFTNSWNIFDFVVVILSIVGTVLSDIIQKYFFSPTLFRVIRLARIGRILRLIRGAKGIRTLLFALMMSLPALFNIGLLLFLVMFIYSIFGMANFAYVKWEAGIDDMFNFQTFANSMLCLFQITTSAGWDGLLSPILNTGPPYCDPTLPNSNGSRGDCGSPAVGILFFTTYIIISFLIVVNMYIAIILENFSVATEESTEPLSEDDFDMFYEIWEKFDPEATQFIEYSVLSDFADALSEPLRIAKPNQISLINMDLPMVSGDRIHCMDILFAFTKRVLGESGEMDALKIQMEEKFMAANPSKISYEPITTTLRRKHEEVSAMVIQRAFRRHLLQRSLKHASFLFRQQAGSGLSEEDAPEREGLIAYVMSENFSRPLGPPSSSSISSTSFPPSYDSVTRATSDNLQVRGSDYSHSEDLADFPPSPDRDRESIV

[5] = Cardiotoxicity in isolated rabbit left ventricular wedge model assessed as torsade de pointes score at 0.3 to 1 uM; type: toxicity, tissue-based, Oryctolagus cuniculus, Heart left ventricle
[6] = test system: HEK293; experiment: Selectivity ratio of EC50 for human mu opioid receptor expressed in HEK293 cells over EC50 for human delta opioid receptor expressed in HEK293 cells; type: cell-based
[7] = target: Voltage-dependent L-type calcium channel subunit alpha-1C (Homo sapiens, UniProt Q13936); experiment: Inhibition of human Cav 1.2 ion channel expressed in HEK293 cells by whole-cell patch clamp technique; type: cell-based
[8] = test system: Mus musculus; experiment: Toxicity in mouse glass bead model assessed as retention time of colonic motility at 3 mg/kg, sc; type: organism-based, Colon; set-up: dose 3 mg/kg, route subcutaneous; conditions: in vivo
[9] = target: Kappa-type opioid receptor (Homo sapiens, UniProt P41145); experiment: Agonist activity at human kappa opioid receptor expressed in HEK293 cells assessed as inhibition of forskolin-stimulated cAMP accumulation by fluorescence assay; type: functional, cell-based
Kappa-type opioid receptor, sequence (P41145 whole entry): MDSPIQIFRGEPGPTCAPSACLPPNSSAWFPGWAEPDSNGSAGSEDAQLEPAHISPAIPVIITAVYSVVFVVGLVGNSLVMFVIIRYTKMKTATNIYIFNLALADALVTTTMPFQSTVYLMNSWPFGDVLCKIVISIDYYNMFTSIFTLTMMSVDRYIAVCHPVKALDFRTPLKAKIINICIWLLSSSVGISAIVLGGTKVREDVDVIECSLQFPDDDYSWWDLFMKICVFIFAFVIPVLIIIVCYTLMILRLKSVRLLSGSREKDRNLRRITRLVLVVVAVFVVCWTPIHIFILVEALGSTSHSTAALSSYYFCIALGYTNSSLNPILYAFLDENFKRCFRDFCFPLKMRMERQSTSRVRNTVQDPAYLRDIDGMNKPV

[10] = Cardiotoxicity in isolated rabbit left ventricular wedge model assessed as increase in Tp-e interval at 1 uM; type: toxicity, tissue-based, Oryctolagus cuniculus, Heart left ventricle
[11] = target: Delta-type opioid receptor (Homo sapiens, UniProt P41143); experiment: Agonist activity at human delta opioid receptor expressed in HEK293 cells assessed as inhibition of forskolin-stimulated cAMP accumulation by fluorescence assay; type: functional, cell-based
Delta-type opioid receptor, sequence (P41143 whole entry): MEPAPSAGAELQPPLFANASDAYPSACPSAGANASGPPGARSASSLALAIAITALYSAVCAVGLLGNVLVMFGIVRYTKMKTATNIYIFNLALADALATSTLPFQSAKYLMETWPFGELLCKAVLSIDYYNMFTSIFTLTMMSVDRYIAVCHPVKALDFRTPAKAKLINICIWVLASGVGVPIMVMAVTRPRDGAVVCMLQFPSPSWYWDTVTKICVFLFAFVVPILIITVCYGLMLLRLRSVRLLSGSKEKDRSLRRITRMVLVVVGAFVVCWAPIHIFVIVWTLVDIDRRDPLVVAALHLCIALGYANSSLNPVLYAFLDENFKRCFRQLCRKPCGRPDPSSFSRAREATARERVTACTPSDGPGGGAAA

[12] = target: Voltage-gated inwardly rectifying potassium channel KCNH2 (Homo sapiens, UniProt Q12809); experiment: Inhibition of human ERG channel expressed in HEK293 cells by whole-cell patch clamp technique; type: cell-based
Voltage-gated inwardly rectifying potassium channel KCNH2, sequence (Q12809 whole entry): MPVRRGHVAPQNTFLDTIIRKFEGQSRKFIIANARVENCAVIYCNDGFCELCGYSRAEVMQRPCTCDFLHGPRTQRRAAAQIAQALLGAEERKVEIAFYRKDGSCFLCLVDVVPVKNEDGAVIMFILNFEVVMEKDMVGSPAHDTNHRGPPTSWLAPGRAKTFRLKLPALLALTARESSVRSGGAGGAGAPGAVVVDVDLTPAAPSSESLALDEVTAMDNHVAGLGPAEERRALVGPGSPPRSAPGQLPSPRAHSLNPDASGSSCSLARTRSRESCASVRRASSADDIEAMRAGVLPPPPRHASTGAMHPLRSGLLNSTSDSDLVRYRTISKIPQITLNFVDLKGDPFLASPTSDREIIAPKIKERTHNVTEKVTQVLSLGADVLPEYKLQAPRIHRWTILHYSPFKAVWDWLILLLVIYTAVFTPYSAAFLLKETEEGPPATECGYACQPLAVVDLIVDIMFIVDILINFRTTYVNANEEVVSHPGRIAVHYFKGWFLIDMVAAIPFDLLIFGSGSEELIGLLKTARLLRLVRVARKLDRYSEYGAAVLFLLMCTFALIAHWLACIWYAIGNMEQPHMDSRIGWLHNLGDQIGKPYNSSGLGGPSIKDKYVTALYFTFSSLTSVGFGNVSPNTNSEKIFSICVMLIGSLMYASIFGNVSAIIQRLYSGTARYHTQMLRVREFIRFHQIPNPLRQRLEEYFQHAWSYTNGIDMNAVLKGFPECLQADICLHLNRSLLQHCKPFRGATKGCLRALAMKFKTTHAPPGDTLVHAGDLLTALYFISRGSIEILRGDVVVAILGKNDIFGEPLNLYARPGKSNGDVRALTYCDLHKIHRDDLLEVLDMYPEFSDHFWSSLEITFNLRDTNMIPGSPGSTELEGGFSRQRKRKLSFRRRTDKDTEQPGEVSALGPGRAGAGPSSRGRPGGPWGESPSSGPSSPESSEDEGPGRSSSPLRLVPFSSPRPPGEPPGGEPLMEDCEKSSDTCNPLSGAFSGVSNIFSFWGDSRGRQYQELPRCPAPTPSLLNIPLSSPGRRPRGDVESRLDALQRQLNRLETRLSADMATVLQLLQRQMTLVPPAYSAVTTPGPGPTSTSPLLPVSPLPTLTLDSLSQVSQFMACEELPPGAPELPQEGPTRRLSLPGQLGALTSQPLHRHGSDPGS

[13] = target: T2, Sodium channel protein type 5 subunit alpha; experiment: Inhibition of human Nav 1.5 phasic ion channel expressed in HEK293 cells by whole-cell patch clamp technique; type: cell-based
[14] = test system: Mus musculus; experiment: Analgesic effect in mouse at 3 mg/kg, sc after 30 mins by hot plate assay; type: functional; conditions: route subcutaneous
[15] = Cardiotoxicity in isolated rabbit left ventricular wedge model assessed as increase in QT interval at 1 uM; type: toxicity, tissue-based, Oryctolagus cuniculus, Heart left ventricle
[16] = test system: Mus musculus; experiment: Analgesic effect in sc dosed mouse by hot plate assay; type: functional
[17] = test system: HEK293; experiment: Selectivity ratio of EC50 for human mu opioid receptor expressed in HEK293 cells over EC50 for human kappa opioid receptor expressed in HEK293 cells; type: cell-based
[18] = test system: Mus musculus; experiment: Analgesic effect in mouse at 6 mg/kg, sc after 30 mins by hot plate assay; type: functional; conditions: route subcutaneous
[19] = test system: Cynomolgus monkey; experiment: Cardiotoxicity in cynomolgus monkey assessed as QT interval; type: toxicity, organism-based, Macaca fascicularis; conditions: in vivo
[20] = test system: Cynomolgus monkey; experiment: Cardiotoxicity in cynomolgus monkey assessed as PR interval; type: toxicity, organism-based, Macaca fascicularis; conditions: in vivo
[21] = Cardiotoxicity in isolated rabbit left ventricular wedge model assessed as increase in QT interval at 0.3 uM; type: toxicity, tissue-based, Oryctolagus cuniculus, Heart left ventricle
[22] = Cardiotoxicity in isolated rabbit left ventricular wedge model assessed as torsade de pointes score up to 30 uM; type: toxicity, tissue-based, Oryctolagus cuniculus, Heart left ventricle
[23] = test system: Cynomolgus monkey; experiment: Cardiotoxicity in cynomolgus monkey assessed as QRS duration; type: toxicity, organism-based, Macaca fascicularis; conditions: in vivo
[24] = Cardiotoxicity in isolated rabbit left ventricular wedge model assessed as proarrhyhmic event; type: toxicity, tissue-based, Oryctolagus cuniculus, Heart left ventricle
[25] = test system: Cynomolgus monkey; experiment: Cardiotoxicity in cynomolgus monkey assessed as QTc interval; type: toxicity, organism-based, Macaca fascicularis; conditions: in vivo

T1 sequence (P35372 whole entry): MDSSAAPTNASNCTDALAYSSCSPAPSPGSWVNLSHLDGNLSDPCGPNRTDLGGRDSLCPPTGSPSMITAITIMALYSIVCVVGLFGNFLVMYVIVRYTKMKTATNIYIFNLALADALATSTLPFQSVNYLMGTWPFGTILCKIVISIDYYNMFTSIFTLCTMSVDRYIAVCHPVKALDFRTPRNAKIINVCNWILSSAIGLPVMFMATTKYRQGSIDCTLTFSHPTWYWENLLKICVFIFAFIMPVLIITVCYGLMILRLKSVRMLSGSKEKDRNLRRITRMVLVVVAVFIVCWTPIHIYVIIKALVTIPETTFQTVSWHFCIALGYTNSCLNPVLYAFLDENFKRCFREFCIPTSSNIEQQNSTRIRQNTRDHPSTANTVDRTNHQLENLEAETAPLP

Row | SMILES | EC50 [1] | EC50 [2] | also measured
1 | c1ccc([C@]2(CCNCc3ccncn3)CCOC3(CCCC3)C2)nc1 | 2000 nM | 794 nM | 
2 | Fc1ccc([C@]2(CCNCc3ccccc3)CCOC3(CCCC3)C2)cc1 | 398 nM | 31.6 nM | 
3 | Cc1cc(C)c(CNCC[C@@]2(c3ccccn3)CCOC3(CCCC3)C2)s1 | 631 nM | 25.1 nM | 
4 | CC[C@]1(C)CC(CCNCc2ccccc2O)(c2ccc(C)cc2)CCO1 (stereo partly drawn) | 2000 nM | 501 nM | 
5 | c1ccc([C@]2(CCNCc3ccncc3)CCOC3(CCCC3)C2)nc1 |  | 1260 nM | 
6 | CCC1(CC)CC(CCNCc2ccccc2)(c2ccc(F)cc2)CCO1 (stereo not drawn) | 6310 nM | 251 nM | 
7 | c1ccc([C@]2(CCNCc3ccc4ccccc4c3)CCOC3(CCCC3)C2)nc1 | 20000 nM | 158 nM | 
8 | c1ccc([C@]2(CCNCc3cnccn3)CCOC3(CCCC3)C2)nc1 |  | 631 nM | 
9 | Fc1ccc(C2(CCNCc3ccccc3)CCOC3(CCCC3)C2)cc1 (racemic) | 631 nM | 79.4 nM | 
10 | Cc1ccc(CNCC[C@@]2(c3ccccn3)CCOC3(CCCC3)C2)s1 |  | 15.8 nM | 
11 | CC1(C)CC(CCNCc2ccccc2)(c2ccc(F)cc2)CCO1 (stereo not drawn) |  | 1580 nM | 
12 | c1ccc(CNCC[C@]2(c3ccccn3)CCOC3(CCCC3)C2)cc1 | 15800 nM | 631 nM | 
13 | c1ccc(CNCC[C@@]2(c3ccccn3)CCOC3(CCCC3)C2)cc1 | 158 nM | 12.6 nM | 
14 | c1ccc([C@]2(CCNCC3CCCC3)CCOC3(CCCC3)C2)nc1 |  | 31.6 nM | 
15 | c1ccc(CNCC[C@@]2(c3ccccn3)CCOC3(CCCC3)C2)nc1 |  | 158 nM | 
16 | Cc1ccc(CNCC[C@@]2(c3ccccn3)CCOC3(CCCC3)C2)o1 | 200 nM | 50.1 nM | 
17 | Clc1cccc(CNCC[C@@]2(c3ccccn3)CCOC3(CCCC3)C2)c1 | 50.1 nM | 2.51 nM | 
18 | Clc1ccccc1CNCC[C@@]1(c2ccccn2)CCOC2(CCCC2)C1 |  | 10 nM | 

Row | SMILES | EC50 [1] | EC50 [2] | also measured
19 | Fc1ccc([C@@]2(CCNCc3ccccc3)CCOC3(CCCC3)C2)cc1 | 7940 nM | 501 nM | 
20 | Cc1csc(CNCC[C@@]2(c3ccccn3)CCOC3(CCCC3)C2)c1 | 398 nM | 5.01 nM | 
21 | Cc1ccc(C2(CCNCc3ccccc3O)CCOCC2)cc1 |  | 10000 nM | 
22 | c1ccc([C@]2(CCNCc3cccnc3)CCOC3(CCCC3)C2)nc1 |  | 200 nM | 
23 | c1ccc([C@]2(CCNCc3cccs3)CCOC3(CCCC3)C2)nc1 | 251 nM | 15.8 nM | fold change (FC) [3]: 2; IC50 [4]: 20000 nM; Activity [5]: Toxic; Ratio EC50 [6]: 56; IC50 [7]: > 100000 nM; Retention_time [8]: 65 min; EC50 [9]: 900 nM; Activity [10]: 65%; EC50 [11]: 750 nM; IC50 [12]: 2300 nM; IC50 [13]: 9000 nM; MPE [14]: 79%; Activity [15]: 40%; ED50 [16]: 1.1 mg/kg; Ratio EC50 [17]: 71
24 | Fc1ccc(C2(CCNCc3ccccc3)CCOC3(CCCCC3)C2)cc1 (stereo not drawn) | 7940 nM | 398 nM | 
25 | C[C@H](NCC[C@@]1(c2ccc(F)cc2)CCOC2(CCCC2)C1)c1ccccc1 |  | 501 nM | 
26 | CC(C)(NCC[C@@]1(c2ccc(F)cc2)CCOC2(CCCC2)C1)c1ccccc1 |  | 3160 nM | 
27 | c1ccc(CNCCC2(c3ccccn3)CCOC3(CCCC3)C2)cc1 (racemic) | 200 nM | 50.1 nM | 
28 | CC[C@]1(C)CC(CCNCc2ccccc2O)(c2ccc(F)cc2)CCO1 (stereo partly drawn) | 1580 nM | 39.8 nM | 
29 | C[C@@H](NCC[C@@]1(c2ccc(F)cc2)CCOC2(CCCC2)C1)c1ccccc1 |  | 1000 nM | 
30 | c1ccc([C@]2(CCNCc3ccsc3)CCOC3(CCCC3)C2)nc1 | 63.1 nM | 12.6 nM | 
31 | CN1CC[C@]23c4c5ccc(O)c4O[C@H]2[C@@H](O)C=C[C@H]3[C@H]1C5 [MORPHINE] |  |  | MPE [18]: 69%
32 | COc1ccsc1CNCC[C@@]1(c2ccccn2)CCOC2(CCCC2)C1 [OLICERIDINE] |  |  | IC50 [4]: 16500 nM; Activity [19]: Non-toxic; IC50 [7]: 36000 nM; Activity [20]: Non-toxic; EC50 [9]: 1400 nM; Activity [10]: 7%; EC50 [11]: 2800 nM; IC50 [12]: 6200 nM; Activity [21]: 3%; IC50 [13]: 4700 nM; Activity [22]: Non-toxic; Activity [23]: Non-toxic; Activity [24]: Non-toxic; Activity [25]: Non-toxic
33 | Cc1cc(CNCC[C@@]2(c3ccccn3)CCOC3(CCCC3)C2)oc1C | 316 nM | 31.6 nM | 
34 | Cc1ccsc1CNCC[C@@]1(c2ccccn2)CCOC2(CCCC2)C1 |  | 6.31 nM | 
35 | Cc1cc(CNCC[C@@]2(c3ccccn3)CCOC3(CCCC3)C2)sc1C | 501 nM | 5.01 nM | 
